For 13 compounds, IC50 and efflux ratio results are on record in patent US12447153B2, “HER2 mutation inhibitors” (Array BioPharma Inc., priority 2021, dated 2025).

One series concerns the target ErbB2 WT (Homo sapiens (Human), UniProt P04626). The series can be described thus: ErbB Enzyme Assay (HTRF KinEASE-TK), Assay 2. It counts as biochemical. (In TR-FRET formats the signal depends on donor and acceptor labels being close together.)
In the next series the target is EGFR (Homo sapiens (Human), UniProt P00533). The series can be described thus: ErbB Enzyme Assay (HTRF KinEASE-TK), Assay 3. In kind it is biochemical.
In series [1] the target is ErbB2 with Exon 20 YVMA insertion (HER2-YVMA) (Homo sapiens (Human), UniProt P04626, INS775YVMA). Description: Cellular Phosphorylation Assay, Assay 4 (constitutive ErbB2 phosphorylation, NIH 3T3 cells). It counts as cell-based.
ErbB2 with Exon 20 YVMA insertion (HER2-YVMA), sequence (P04626 other isoform, or with tags, fused parts or gaps ins YVMA behind 775): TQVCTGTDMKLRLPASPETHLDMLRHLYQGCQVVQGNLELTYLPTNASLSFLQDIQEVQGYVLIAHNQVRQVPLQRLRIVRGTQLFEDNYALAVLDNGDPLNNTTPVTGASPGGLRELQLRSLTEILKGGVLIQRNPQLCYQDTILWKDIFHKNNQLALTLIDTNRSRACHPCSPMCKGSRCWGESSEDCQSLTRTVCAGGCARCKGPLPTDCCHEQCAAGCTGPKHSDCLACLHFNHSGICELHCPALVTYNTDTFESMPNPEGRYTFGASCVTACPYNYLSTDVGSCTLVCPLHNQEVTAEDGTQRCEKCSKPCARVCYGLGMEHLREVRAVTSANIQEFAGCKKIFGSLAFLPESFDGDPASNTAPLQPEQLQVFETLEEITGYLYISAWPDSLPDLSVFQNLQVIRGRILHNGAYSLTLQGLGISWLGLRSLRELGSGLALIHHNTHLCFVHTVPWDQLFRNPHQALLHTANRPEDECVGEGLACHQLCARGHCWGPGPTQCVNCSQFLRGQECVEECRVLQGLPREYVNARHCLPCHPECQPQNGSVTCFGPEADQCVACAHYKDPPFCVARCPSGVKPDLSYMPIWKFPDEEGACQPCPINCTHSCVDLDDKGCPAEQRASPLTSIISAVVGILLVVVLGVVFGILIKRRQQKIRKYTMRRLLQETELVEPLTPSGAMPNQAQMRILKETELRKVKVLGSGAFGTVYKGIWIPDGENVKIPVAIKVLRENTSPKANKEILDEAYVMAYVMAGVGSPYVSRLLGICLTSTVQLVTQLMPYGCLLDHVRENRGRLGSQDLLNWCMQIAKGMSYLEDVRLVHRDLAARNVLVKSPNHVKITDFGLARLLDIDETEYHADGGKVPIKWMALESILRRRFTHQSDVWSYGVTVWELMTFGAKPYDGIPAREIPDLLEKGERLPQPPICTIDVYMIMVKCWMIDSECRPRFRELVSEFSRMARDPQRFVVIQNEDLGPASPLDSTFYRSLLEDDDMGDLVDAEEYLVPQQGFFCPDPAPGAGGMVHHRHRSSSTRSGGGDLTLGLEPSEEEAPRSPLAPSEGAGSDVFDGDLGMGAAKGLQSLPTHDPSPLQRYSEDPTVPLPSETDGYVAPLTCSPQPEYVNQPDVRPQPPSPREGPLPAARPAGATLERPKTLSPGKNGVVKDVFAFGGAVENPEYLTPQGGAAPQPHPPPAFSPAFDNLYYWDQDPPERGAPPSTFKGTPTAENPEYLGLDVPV
The target in another series is EGFR wild type (EGFR WT) (Homo sapiens (Human), UniProt P00533). Description: Cellular Phosphorylation Assay, Assay 5 (EGF-stimulated EGFR phosphorylation, NIH 3T3 cells). It counts as cell-based.
EGFR wild type (EGFR WT), sequence (P00533 25-1210): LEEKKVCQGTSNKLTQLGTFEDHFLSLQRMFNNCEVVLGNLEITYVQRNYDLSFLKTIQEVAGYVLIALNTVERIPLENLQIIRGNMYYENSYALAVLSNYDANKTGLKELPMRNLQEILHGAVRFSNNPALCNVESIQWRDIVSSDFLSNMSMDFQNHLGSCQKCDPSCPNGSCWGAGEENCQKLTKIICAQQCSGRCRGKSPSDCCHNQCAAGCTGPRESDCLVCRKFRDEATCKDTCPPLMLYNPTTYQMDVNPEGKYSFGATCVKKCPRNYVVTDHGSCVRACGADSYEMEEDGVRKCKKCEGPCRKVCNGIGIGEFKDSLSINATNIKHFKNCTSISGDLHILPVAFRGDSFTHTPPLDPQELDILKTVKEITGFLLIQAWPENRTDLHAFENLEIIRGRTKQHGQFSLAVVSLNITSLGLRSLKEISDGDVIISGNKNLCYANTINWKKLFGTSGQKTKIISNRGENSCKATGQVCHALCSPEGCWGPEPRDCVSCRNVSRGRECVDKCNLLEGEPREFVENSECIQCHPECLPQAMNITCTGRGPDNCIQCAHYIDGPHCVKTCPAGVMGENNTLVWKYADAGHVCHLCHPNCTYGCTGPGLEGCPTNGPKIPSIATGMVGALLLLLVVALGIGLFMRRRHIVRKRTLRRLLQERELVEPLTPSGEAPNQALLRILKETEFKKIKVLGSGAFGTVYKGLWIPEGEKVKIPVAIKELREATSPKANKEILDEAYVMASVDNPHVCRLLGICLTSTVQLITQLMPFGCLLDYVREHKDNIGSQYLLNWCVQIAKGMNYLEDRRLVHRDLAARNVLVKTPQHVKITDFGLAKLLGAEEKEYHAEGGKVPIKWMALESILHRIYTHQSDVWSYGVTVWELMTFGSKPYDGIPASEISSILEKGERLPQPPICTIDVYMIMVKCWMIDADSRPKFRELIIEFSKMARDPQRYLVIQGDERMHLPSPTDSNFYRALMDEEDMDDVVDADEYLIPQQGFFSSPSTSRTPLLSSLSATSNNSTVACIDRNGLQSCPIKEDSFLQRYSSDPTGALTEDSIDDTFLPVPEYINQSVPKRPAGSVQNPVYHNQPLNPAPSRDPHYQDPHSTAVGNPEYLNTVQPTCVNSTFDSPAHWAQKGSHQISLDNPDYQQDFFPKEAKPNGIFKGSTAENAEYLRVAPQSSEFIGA
A further series has as its target BCRP (Homo sapiens (Human), UniProt Q9UNQ0). Description: BCRP MDCKII efflux assay (Assay 7). It counts as in vitro ADME. The note with it: dog; efflux ratio Papp(B-A)/Papp(A-B), BCRP MDCKII cells; read-out: Assay 7 Pe Ratio. The protocol:
Assay conditions included with and without the BCRP-specific inhibitor, KO143, at a concentration of 0.3 μM to ascertain the contribution of BCRP to the efflux value of the test compound.
Final organic concentration in the assay was 1%.

For the next series, the target named is MDR1 (P-gp) (Homo sapiens (Human), UniProt P08183). Description: in vitro. The note with it: pig, LLC-PK1.
MDR1 (P-gp), sequence (P08183 whole entry): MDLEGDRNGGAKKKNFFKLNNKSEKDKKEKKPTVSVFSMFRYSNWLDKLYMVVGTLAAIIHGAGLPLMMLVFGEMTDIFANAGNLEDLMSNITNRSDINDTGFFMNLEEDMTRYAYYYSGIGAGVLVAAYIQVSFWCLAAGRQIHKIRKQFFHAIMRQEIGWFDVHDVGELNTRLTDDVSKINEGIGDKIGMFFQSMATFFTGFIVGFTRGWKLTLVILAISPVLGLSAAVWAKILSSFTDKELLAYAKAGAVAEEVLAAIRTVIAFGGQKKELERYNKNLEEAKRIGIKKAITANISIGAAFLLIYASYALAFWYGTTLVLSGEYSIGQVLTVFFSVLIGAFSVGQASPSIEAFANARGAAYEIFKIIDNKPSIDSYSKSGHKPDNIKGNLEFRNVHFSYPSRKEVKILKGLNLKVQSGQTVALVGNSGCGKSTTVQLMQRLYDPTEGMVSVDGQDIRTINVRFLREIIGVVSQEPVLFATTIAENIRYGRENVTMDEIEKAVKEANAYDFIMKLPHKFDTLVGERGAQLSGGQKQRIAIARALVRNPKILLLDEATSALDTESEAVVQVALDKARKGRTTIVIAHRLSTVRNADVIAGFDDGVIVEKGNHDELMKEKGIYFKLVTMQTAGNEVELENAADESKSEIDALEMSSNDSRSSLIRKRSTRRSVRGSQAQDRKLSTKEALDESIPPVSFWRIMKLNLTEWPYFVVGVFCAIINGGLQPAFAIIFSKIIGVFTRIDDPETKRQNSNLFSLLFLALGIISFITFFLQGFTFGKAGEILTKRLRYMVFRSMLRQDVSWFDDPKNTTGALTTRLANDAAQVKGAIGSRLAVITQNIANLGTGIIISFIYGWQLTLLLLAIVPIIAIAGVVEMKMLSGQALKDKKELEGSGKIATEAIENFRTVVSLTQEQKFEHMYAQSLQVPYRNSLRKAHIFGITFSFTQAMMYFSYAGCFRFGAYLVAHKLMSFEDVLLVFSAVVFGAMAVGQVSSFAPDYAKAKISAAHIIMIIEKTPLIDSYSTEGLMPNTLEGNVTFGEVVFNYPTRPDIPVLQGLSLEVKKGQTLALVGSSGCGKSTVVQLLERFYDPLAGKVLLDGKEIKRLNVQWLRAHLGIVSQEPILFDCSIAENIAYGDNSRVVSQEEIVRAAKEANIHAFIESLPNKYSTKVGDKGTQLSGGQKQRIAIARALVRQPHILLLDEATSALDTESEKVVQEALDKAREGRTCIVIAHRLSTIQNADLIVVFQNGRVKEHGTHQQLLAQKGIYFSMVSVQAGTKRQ
The mark [2] stands for this setting: EGF-stimulated EGFR WT phosphorylation.
The mark [3] stands for this setting: cellular ErbB2 YVMA phosphorylation.
Where [4] appears, read: cellular EGFR WT phosphorylation, EGF-stimulated.

ErbB2 WT, sequence (P04626 23-1255): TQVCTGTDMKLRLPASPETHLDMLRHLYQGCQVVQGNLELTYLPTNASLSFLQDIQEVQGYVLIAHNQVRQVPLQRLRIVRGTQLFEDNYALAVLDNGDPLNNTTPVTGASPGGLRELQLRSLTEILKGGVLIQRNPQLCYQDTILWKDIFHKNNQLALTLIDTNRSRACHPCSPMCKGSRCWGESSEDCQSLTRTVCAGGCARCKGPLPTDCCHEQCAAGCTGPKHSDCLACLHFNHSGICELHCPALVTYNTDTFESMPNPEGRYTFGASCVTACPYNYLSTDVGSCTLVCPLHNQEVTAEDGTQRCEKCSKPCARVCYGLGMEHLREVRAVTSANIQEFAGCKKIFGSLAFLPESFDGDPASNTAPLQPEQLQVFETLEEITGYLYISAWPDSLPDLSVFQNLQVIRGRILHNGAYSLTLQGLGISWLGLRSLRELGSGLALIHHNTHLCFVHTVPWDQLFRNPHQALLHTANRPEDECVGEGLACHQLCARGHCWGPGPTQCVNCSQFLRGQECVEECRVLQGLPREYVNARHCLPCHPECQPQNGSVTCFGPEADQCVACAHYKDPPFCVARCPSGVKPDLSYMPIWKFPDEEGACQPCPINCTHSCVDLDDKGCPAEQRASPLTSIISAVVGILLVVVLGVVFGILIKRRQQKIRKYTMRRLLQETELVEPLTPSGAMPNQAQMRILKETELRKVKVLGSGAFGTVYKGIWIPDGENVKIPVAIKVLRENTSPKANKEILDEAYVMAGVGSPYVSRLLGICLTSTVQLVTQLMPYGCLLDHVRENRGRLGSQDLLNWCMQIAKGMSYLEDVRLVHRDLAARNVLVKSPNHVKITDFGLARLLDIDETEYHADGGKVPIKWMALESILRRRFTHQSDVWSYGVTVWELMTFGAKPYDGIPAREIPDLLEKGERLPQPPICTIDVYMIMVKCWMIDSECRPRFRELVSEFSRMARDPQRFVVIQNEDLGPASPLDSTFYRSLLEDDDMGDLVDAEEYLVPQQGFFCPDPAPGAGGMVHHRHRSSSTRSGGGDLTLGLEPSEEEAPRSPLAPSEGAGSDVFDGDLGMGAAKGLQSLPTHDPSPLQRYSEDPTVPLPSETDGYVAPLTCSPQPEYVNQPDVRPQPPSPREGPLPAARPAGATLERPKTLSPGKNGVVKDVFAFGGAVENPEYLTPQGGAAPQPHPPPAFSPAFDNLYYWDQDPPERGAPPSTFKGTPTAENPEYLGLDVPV

For the compound `C=CC(=O)N1CCCC[C@@H](c2ccc3ncnc(Nc4ccc(Oc5ccc6c(c5)ncn6C)c(C)c4F)c3n2)C1` (racemic) [Example 145, rac-(R)-1-(3-(4-((2-fluoro-3-methyl-4-((1-methyl-1H-benzo[d]imidazol-5-yl)oxy)phenyl)amino)pyrido[3,2-d]pyrimidin-6-yl)azepan-1-yl)prop-2-en-1-one], the IC50 against ErbB2 WT (ErbB2 WT enzyme) was 5.9 nM; at EGFR (EGFR enzyme), 410 nM; in series [1] (ErbB2 YVMA phosphorylation), 15.3 nM; on EGFR wild type (EGFR WT) (setting [2]), 582 nM. For the same compound, the efflux ratio at 2 h, 1 µM on BCRP amounted to 1.4; at MDR1 (P-gp) it was 6.4.

Take `C=CC(=O)N1CCC(Oc2ccc3ncnc(Nc4ccc(Oc5ccc6cn(C)nc6c5)c(C)c4F)c3n2)CC1` [Example 6, 1-(4-((4-((2-fluoro-3-methyl-4-((2-methyl-2H-indazol-6-yl)oxy)phenyl)amino)pyrido[3,2-d]pyrimidin-6-yl)oxy)piperidin-1-yl)prop-2-en-1-one]: the IC50 against ErbB2 WT (ErbB2 WT enzyme) was 3300 nM; against EGFR (EGFR enzyme), ≥ 10000 nM; in series [1] (ErbB2 YVMA phosphorylation), 54.2 nM; against EGFR wild type (EGFR WT) (setting [2]), 2920 nM. Also, the efflux ratio at 2 h, 1 µM on BCRP turned out to be 2.5; on MDR1 (P-gp) it was 1.3.

Turning to `C=CC(=O)N1CCCN(c2ccc3ncnc(Nc4ccc(Oc5ccn6ncnc6c5)c(Cl)c4F)c3n2)CC1(C)C` [Example 261], the half-inhibitory concentration (IC50) is 13.4 nM against ErbB2 WT (ErbB2 WT enzyme assay), ≥ 10000 nM at EGFR (EGFR enzyme assay), 27.9 nM in series [1] (setting [3]) and 716 nM against EGFR wild type (EGFR WT) (setting [4]). The efflux ratio at 2 h, 1 µM is 3.6 on BCRP and 1.3 at MDR1 (P-gp).

In the case of `C=CC(=O)N1C[C@H]2CC[C@@H](C1)[C@@H]2c1ccc2ncnc(Nc3cc(C)c(Oc4ccn5ncnc5c4)cc3F)c2n1` [Example 222, 1-((1R,5S,8r)-8-(4-((4-([1,2,4]triazolo[1,5-a]pyridin-7-yloxy)-2-fluoro-5-methylphenyl)amino)pyrido[3,2-d]pyrimidin-6-yl)-3-azabicyclo[3.2.1]octan-3-yl)prop-2-en-1-one], the concentration for half-maximal inhibition (IC50) at ErbB2 WT (ErbB2 WT enzyme) was 133 nM; against EGFR (EGFR enzyme) it was 5830 nM; in series [1] (ErbB2 YVMA phosphorylation) it was 309 nM; at EGFR wild type (EGFR WT) (setting [2]), ≥ 5000 nM. The efflux ratio at 2 h, 1 µM at BCRP amounted to 1.4; at MDR1 (P-gp) it was 1.3.

In the case of `C=CC(=O)N1C[C@H](c2ccc3ncnc(Nc4ccc(Oc5ccc6c(c5)ncn6C)c(C)c4F)c3n2)C[C@H]1C` [Example 193, 1-((2R,4R)-4-(4-((2-fluoro-3-methyl-4-((1-methyl-1H-benzo[d]imidazol-5-yl)oxy)phenyl)amino)pyrido[3,2-d]pyrimidin-6-yl)-2-methylpyrrolidin-1-yl)prop-2-en-1-one], the IC50 on ErbB2 WT (ErbB2 WT enzyme) is 61.8 nM; at EGFR (EGFR enzyme) it was ≥ 10000 nM; in series [1] (ErbB2 YVMA phosphorylation) it was 16 nM; against EGFR wild type (EGFR WT) (setting [2]), ≥ 5000 nM. Also, the efflux ratio at 2 h, 1 µM on BCRP came to 3.4; at MDR1 (P-gp), 0.7.

As for `C=CC(=O)N1CC2CC(C1)N2c1ccc2ncnc(Nc3cc(C)c(Oc4ccc5c(c4)ncn5C)cc3F)c2n1` [Example 334], the IC50 against ErbB2 WT (ErbB2 WT enzyme assay) came out at 55.6 nM; at EGFR (EGFR enzyme assay), 430 nM; in series [1] (setting [3]) it was 21.8 nM; at EGFR wild type (EGFR WT) (setting [4]) it was 1080 nM. For the same compound, the efflux ratio at 2 h, 1 µM on BCRP was found to be 1.9; on MDR1 (P-gp), 3.7.

For the compound `C=CC(=O)N1CC2CC(C1)N2c1ccc2ncnc(Nc3ccc(Oc4ccn5ncnc5c4)c(C)c3F)c2n1` [Example 46, 1-(6-(4-((4-([1,2,4]triazolo[1,5-a]pyridin-7-yloxy)-2-fluoro-3-methylphenyl)amino)pyrido[3,2-d]pyrimidin-6-yl)-3,6-diazabicyclo[3.1.1]heptan-3-yl)prop-2-en-1-one], the IC50 turned out to be 119 nM at ErbB2 WT (ErbB2 WT enzyme), 1270 nM at EGFR (EGFR enzyme), 18.2 nM in series [1] (ErbB2 YVMA phosphorylation) and 2100 nM against EGFR wild type (EGFR WT) (setting [2]). In addition, the efflux ratio at 2 h, 1 µM on BCRP and on MDR1 (P-gp) was 2.5 in each case.

For `C=CC(=O)N1[C@H](C)CN(c2ccc3ncnc(Nc4cc(C)c(Oc5ccc6c(c5)ncn6C)cc4F)c3n2)C[C@@H]1C` [Example 112, 1-((2S,6R)-4-(4-((2-fluoro-5-methyl-4-((1-methyl-1H-benzo[d]imidazol-5-yl)oxy)phenyl)amino)pyrido[3,2-d]pyrimidin-6-yl)-2,6-dimethylpiperazin-1-yl)prop-2-en-1-one], the IC50 at ErbB2 WT (ErbB2 WT enzyme) is 57.5 nM; at EGFR (EGFR enzyme), 3330 nM; in series [1] (ErbB2 YVMA phosphorylation), 19.8 nM; at EGFR wild type (EGFR WT) (setting [2]) it was ≥ 5000 nM. Further, the efflux ratio at 2 h, 1 µM at BCRP is 5.2; on MDR1 (P-gp), 1.4.

Take `C=CC(=O)N1CCN(c2ccc3ncnc(Nc4ccc(Oc5cnc6c(c5)ncn6C)c(C)c4F)c3n2)C[C@@H]1C1CC1` [Example 167, (S)-1-(2-cyclopropyl-4-(4-((2-fluoro-3-methyl-4-((3-methyl-3H-imidazo[4,5-b]pyridin-6-yl)oxy)phenyl)amino)pyrido[3,2-d]pyrimidin-6-yl)piperazin-1-yl)prop-2-en-1-one]: the IC50 against ErbB2 WT (ErbB2 WT enzyme) is 519 nM; at EGFR (EGFR enzyme), ≥ 10000 nM; in series [1] (ErbB2 YVMA phosphorylation), 25.1 nM; at EGFR wild type (EGFR WT) (setting [2]) it was ≥ 5000 nM. Besides, the efflux ratio at 2 h, 1 µM on BCRP is 1.7; on MDR1 (P-gp), 0.9.

For `C=CC(=O)N1CCC(c2nc3c(Nc4ccc(Oc5ccc6c(c5)ncn6C)c(C)c4)ncnc3cc2OC)CC1` [Example 42, 1-(4-(7-methoxy-4-((3-methyl-4-((1-methyl-1H-benzo[d]imidazol-5-yl)oxy)phenyl)amino)pyrido[3,2-d]pyrimidin-6-yl)piperidin-1-yl)prop-2-en-1-one], the 50% inhibitory concentration (IC50) against ErbB2 WT (ErbB2 WT enzyme) is 14.7 nM; at EGFR (EGFR enzyme), 778 nM; in series [1] (ErbB2 YVMA phosphorylation) it was 17 nM; on EGFR wild type (EGFR WT) (setting [2]), ≥ 5000 nM. Besides, the efflux ratio at 2 h, 1 µM at BCRP came to 2.9; on MDR1 (P-gp), 2.5.

Take `C=CC(=O)N1CCN(c2ccc3ncnc(Nc4ccc(Oc5ccn6ncnc6c5)c(Cl)c4F)c3n2)CC1` [Example 30, 1-(4-(4-((4-([1,2,4]triazolo[1,5-a]pyridin-7-yloxy)-3-chloro-2-fluorophenyl)amino)pyrido[3,2-d]pyrimidin-6-yl)piperazin-1-yl)prop-2-en-1-one]: the IC50 against ErbB2 WT (ErbB2 WT enzyme) stood at 6 nM; at EGFR (EGFR enzyme) it was 200 nM; in series [1] (ErbB2 YVMA phosphorylation) it was 2.3 nM; against EGFR wild type (EGFR WT) (setting [2]) it was 87.6 nM. For the same compound, the results for the efflux ratio at 2 h, 1 µM on BCRP and on MDR1 (P-gp) were 5 and 1.5, respectively.

As to `C=CC(=O)N1[C@H](C)CN(c2ccc3ncnc(Nc4ccc(Oc5cnc6c(c5)ncn6C)c(C)c4F)c3n2)C[C@@H]1C` [Example 442], the IC50 is 464 nM against ErbB2 WT (ErbB2 WT enzyme assay), ≥ 10000 nM against EGFR (EGFR enzyme assay), 29.7 nM in series [1] (setting [3]) and ≥ 5000 nM at EGFR wild type (EGFR WT) (setting [4]). In addition, the efflux ratio at 2 h, 1 µM on BCRP was found to be 1.9; on MDR1 (P-gp), 1.

For the compound `C=CC(=O)N1CC[C@@H]2C[C@H]1CN2c1ccc2ncnc(Nc3cc(Cl)c(Oc4ccn5ncnc5c4)cc3F)c2n1` [Example 177, 1-((1 S,5R)-6-(4-((4-([1,2,4]triazolo[1,5-a]pyridin-7-yloxy)-5-chloro-2-fluorophenyl)amino)pyrido[3,2-d]pyrimidin-6-yl)-2,6-diazabicyclo[3.2.1]octan-2-yl)prop-2-en-1-one], the IC50 was determined as 9.7 nM at ErbB2 WT (ErbB2 WT enzyme), 129 nM against EGFR (EGFR enzyme), 5.7 nM in series [1] (ErbB2 YVMA phosphorylation) and 156 nM on EGFR wild type (EGFR WT) (setting [2]). The efflux ratio at 2 h, 1 µM on BCRP amounted to 3.6; at MDR1 (P-gp) it was 1.9.

One may read the IC50 as the midpoint of a concentration-inhibition curve. Low values mean greater potency in that assay, high ones weaker potency in that assay.
